Where a name gives a salt, the structure may show the parent alone.
How the values were obtained:
[1] = system: glioblastoma cell line 907042; test: Glioblastoma cancer cell viability, cell line 907042; assay type: cell-based
Method: (§1) Assay to Measure the Effects of Compounds of the Invention on Glioblastoma Cancer Cell Viability
(§2) The compound of Example 33 was tested for inhibitory activity against the glioblastoma cell lines in Table 7 below.

hERG ion channel = hERG ion channel (Homo sapiens, UniProt Q12809); test: Binding to the hERG ion channel
BUB1 = target: T1, BUB1 (Homo sapiens, UniProt O43683); test: Kinase selectivity assay (DiscoverX KinomeScreen), BUB1; assay type: binding; conditions: BUB1, 5 μM; read-out: % Control
T1 construct: purchased DiscoverX
Method: (§3) The compound of Example 33 was tested for off-target activity against a panel of fifty five kinases bearing functional or structural similarity to PLK1 at a concentration of 5 μM using the DiscoverX KinomeScreen assay.

WNK2 = target: T2, WNK2 (Homo sapiens, UniProt Q9Y3S1); test: Kinase selectivity assay (DiscoverX KinomeScreen), WNK2; assay type: binding; conditions: WNK2, 5 μM; read-out: % Control
T2 construct: purchased DiscoverX
Method: as §3

NEK11 = target: T3, NEK11 (Homo sapiens, UniProt Q8NG66); test: Kinase selectivity assay (DiscoverX KinomeScreen), NEK11; assay type: binding; conditions: NEK11, 5 μM; read-out: % Control
T3 construct: purchased DiscoverX
Method: as §3

WEE2 = target: T4, WEE2 (Homo sapiens, UniProt P0C1S8); test: Kinase selectivity assay (DiscoverX KinomeScreen), WEE2; assay type: binding; conditions: WEE2, 5 μM; read-out: % Control
T4 construct: purchased DiscoverX
Method: as §3

phospho-histone H3 = test: Western blotting of tumours 24 hours after a single dose; assay type: in vivo; conditions: mice with established tumours
Method: In a separate experiment, eight mice with established tumours were treated with the compound of Example 33 and euthanised 24 hours after administration of a single dose.

[2] = system: HCT116 cells (a mutant KRAS G-13D expressing cell line); test: Drug resistance studies in HCT116 cells; assay type: cell-based; conditions: five times the half maximal growth inhibiting amount, twenty two days
STK35 = target: T5, STK35 (Homo sapiens, UniProt Q8TDR2); test: Kinase selectivity assay (DiscoverX KinomeScreen), STK35; assay type: binding; conditions: STK35, 5 μM; read-out: % Control
T5 construct: purchased DiscoverX
Method: as §3

DSTYK = target: T6, DSTYK (Homo sapiens, UniProt Q6XUX3); test: Kinase selectivity assay (DiscoverX KinomeScreen), DSTYK; assay type: binding; conditions: read-out: % Control
T6 construct: purchased DiscoverX
Method: as §3

NEK1 = target: T7, NEK1 (Homo sapiens, UniProt Q96PY6); test: Kinase selectivity assay (DiscoverX KinomeScreen), NEK1; assay type: binding; conditions: NEK1, 5 μM; read-out: % Control
T7 construct: purchased DiscoverX
Method: as §3

[3] = system: glioblastoma cell line 908145; test: Glioblastoma cancer cell viability, cell line 908145; assay type: cell-based
Method: as §1, §2

CSNK2A1 = target: T8, CSNK2A1 (Homo sapiens, UniProt P68400); test: Kinase selectivity assay (DiscoverX KinomeScreen), CSNK2A1; assay type: binding; conditions: CSNK2A1, 5 μM; read-out: % Control
T8 construct: purchased DiscoverX
Method: as §3

CHUK = target: T9, CHUK (Homo sapiens, UniProt O15111); test: Kinase selectivity assay (DiscoverX KinomeScreen), CHUK; assay type: binding; conditions: read-out: % Control
T9 construct: purchased DiscoverX
Method: as §3

NEK7 = target: T10, NEK7 (Homo sapiens, UniProt Q8TDX7); test: Kinase selectivity assay (DiscoverX KinomeScreen), NEK7; assay type: binding; conditions: NEK7, 5 μM; read-out: % Control
T10 construct: purchased DiscoverX
Method: as §3

EIF2AK1 = target: T11, EIF2AK1 (Homo sapiens, UniProt Q9BQI3); test: Kinase selectivity assay (DiscoverX KinomeScreen), EIF2AK1; assay type: binding; conditions: EIF2AK1, 5 μM; read-out: % Control
T11 construct: purchased DiscoverX
Method: as §3

STK16 = target: T12, STK16 (Homo sapiens, UniProt O75716); test: Kinase selectivity assay (DiscoverX KinomeScreen), STK16; assay type: binding; conditions: STK16, 5 μM; read-out: % Control
T12 construct: purchased DiscoverX
Method: as §3

NEK3 = target: T13, NEK3 (Homo sapiens, UniProt P51956); test: Kinase selectivity assay (DiscoverX KinomeScreen), NEK3; assay type: binding; conditions: NEK3, 5 μM; read-out: % Control
T13 construct: purchased DiscoverX
Method: as §3

[4] = Stability in human hepatocytes; assay type: in vitro ADME
IKBKB = target: T14, IKBKB (Homo sapiens, UniProt O14920); test: Kinase selectivity assay (DiscoverX KinomeScreen), IKBKB; assay type: binding; conditions: read-out: % Control
T14 construct: purchased DiscoverX
Method: as §3

[5] = system: glioblastoma cell line 907279; test: Glioblastoma cancer cell viability, cell line 907279; assay type: cell-based
Method: as §1, §2

AURKB = target: T15, AURKB (Homo sapiens, UniProt Q96GD4); test: Kinase selectivity assay (DiscoverX KinomeScreen), AURKB; assay type: binding; conditions: read-out: % Control
T15 construct: purchased DiscoverX
Method: as §3

cytochrome P450 2D6 = cytochrome P450 2D6 (Homo sapiens, UniProt P10635); test: Cytochrome P450 inhibition, 2D6; assay type: in vitro ADME
[6] = system: glioblastoma cell line 909905; test: Glioblastoma cancer cell viability, cell line 909905; assay type: cell-based
Method: as §1, §2

ERN1 = target: T16, ERN1 (Homo sapiens, UniProt O75460); test: Kinase selectivity assay (DiscoverX KinomeScreen), ERN1; assay type: binding; conditions: ERN1, 5 μM; read-out: % Control
T16 construct: purchased DiscoverX
Method: as §3

cytochrome P450 3A4 = cytochrome P450 3A4 (Homo sapiens, UniProt P08684); test: Cytochrome P450 inhibition, 3A4; assay type: in vitro ADME
cytochrome P450 1A = test: Cytochrome P450 inhibition, 1A; assay type: in vitro ADME
WNK3 = target: T17, WNK3 (Homo sapiens, UniProt Q9BYP7); test: Kinase selectivity assay (DiscoverX KinomeScreen), WNK3; assay type: binding; conditions: WNK3, 5 μM; read-out: % Control
T17 construct: purchased DiscoverX
Method: as §3

STK36 = target: T18, STK36 (Homo sapiens, UniProt Q9NRP7); test: Kinase selectivity assay (DiscoverX KinomeScreen), STK36; assay type: binding; conditions: STK36, 5 μM; read-out: % Control
T18 construct: purchased DiscoverX
Method: as §3

CSNK2A2 = target: T19, CSNK2A2 (Homo sapiens, UniProt P19784); test: Kinase selectivity assay (DiscoverX KinomeScreen), CSNK2A2; assay type: binding; conditions: CSNK2A2, 5 μM; read-out: % Control
T19 construct: purchased DiscoverX
Method: as §3

PKMYT1 = target: T20, PKMYT1 (Homo sapiens, UniProt Q99640); test: Kinase selectivity assay (DiscoverX KinomeScreen), PKMYT1; assay type: binding; conditions: PKMYT1, 5 μM; read-out: % Control
T20 construct: purchased DiscoverX
Method: as §3

T12 sequence (O75716 whole entry): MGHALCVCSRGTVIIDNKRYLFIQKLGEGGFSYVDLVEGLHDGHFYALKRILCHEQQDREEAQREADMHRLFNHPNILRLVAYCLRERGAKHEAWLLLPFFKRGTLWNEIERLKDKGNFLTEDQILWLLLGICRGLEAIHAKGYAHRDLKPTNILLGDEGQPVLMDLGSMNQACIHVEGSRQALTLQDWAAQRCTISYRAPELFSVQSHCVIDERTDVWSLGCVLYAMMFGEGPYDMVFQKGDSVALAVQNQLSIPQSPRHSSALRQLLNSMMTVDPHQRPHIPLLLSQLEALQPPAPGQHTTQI
T1 sequence (O43683 whole entry): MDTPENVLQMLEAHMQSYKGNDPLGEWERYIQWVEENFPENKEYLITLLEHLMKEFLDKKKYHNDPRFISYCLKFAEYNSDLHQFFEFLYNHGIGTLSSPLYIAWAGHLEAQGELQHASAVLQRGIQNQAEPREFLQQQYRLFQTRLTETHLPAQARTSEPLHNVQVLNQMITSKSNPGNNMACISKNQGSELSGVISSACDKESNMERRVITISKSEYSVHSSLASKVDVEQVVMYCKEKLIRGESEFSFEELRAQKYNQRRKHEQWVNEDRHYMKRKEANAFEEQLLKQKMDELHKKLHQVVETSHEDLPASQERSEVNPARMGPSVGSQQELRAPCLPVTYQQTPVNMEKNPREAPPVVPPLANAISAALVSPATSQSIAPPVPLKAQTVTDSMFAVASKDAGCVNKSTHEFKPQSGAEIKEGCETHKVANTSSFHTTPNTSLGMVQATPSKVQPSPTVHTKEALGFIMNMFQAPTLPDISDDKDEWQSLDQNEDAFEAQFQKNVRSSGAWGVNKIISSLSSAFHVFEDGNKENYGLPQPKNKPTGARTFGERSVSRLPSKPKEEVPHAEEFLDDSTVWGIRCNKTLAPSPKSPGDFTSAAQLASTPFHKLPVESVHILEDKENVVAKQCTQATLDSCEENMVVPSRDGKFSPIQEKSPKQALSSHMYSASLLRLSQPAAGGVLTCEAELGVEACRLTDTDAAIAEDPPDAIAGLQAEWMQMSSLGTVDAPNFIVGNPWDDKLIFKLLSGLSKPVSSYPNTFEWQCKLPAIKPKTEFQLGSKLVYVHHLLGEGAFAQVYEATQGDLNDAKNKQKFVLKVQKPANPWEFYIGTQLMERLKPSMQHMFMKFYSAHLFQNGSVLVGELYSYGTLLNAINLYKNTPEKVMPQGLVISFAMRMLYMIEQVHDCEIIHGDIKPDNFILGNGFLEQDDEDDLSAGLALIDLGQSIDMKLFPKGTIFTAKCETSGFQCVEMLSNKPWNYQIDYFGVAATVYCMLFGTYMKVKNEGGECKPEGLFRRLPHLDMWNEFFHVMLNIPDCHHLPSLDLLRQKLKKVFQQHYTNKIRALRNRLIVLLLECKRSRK
T5 sequence (Q8TDR2 whole entry): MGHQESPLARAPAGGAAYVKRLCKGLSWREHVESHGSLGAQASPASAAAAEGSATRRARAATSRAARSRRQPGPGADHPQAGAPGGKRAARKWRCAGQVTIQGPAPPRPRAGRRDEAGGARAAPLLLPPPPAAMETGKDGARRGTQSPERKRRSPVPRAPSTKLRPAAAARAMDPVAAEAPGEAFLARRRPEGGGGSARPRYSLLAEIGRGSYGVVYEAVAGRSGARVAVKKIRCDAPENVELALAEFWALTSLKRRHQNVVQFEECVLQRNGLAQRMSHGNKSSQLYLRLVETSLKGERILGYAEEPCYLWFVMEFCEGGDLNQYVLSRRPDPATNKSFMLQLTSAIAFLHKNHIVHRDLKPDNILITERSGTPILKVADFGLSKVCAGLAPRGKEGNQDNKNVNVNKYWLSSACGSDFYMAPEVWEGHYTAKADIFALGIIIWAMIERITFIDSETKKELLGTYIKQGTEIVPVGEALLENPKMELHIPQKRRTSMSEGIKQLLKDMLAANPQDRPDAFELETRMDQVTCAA
T18 sequence (Q9NRP7 whole entry): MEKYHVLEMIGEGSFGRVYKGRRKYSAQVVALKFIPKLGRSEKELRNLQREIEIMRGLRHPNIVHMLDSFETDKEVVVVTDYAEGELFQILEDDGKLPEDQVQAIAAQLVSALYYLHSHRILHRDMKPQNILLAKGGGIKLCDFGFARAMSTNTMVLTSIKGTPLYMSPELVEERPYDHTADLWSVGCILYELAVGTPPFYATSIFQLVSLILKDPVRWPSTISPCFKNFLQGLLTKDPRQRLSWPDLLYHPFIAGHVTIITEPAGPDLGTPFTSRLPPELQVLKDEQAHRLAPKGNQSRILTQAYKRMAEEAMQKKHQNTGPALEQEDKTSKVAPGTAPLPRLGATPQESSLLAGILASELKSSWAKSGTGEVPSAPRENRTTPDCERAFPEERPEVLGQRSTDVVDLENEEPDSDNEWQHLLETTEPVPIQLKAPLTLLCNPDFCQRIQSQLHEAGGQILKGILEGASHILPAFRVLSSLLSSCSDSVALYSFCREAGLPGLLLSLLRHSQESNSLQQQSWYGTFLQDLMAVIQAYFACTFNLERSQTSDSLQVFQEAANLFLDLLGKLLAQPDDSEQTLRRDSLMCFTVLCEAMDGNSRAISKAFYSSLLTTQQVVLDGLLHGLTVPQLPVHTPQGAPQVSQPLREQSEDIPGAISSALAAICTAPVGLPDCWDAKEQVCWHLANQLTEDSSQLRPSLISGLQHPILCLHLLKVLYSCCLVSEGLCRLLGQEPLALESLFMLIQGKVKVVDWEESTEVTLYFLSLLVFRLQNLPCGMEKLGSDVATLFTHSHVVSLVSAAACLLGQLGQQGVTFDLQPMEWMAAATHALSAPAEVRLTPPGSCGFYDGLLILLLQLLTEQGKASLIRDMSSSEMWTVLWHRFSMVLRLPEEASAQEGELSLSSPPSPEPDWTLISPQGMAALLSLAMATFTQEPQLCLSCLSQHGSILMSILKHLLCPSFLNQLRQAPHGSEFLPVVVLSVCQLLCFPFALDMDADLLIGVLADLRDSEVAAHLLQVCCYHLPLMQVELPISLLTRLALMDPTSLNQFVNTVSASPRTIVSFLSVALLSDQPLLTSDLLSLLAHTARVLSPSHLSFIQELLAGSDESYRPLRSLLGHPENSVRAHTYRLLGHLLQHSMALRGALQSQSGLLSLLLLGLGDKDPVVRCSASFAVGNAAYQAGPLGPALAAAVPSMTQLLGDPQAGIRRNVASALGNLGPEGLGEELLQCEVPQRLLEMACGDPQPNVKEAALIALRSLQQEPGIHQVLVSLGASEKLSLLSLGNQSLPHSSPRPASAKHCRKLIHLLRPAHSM
T19 sequence (P19784 whole entry): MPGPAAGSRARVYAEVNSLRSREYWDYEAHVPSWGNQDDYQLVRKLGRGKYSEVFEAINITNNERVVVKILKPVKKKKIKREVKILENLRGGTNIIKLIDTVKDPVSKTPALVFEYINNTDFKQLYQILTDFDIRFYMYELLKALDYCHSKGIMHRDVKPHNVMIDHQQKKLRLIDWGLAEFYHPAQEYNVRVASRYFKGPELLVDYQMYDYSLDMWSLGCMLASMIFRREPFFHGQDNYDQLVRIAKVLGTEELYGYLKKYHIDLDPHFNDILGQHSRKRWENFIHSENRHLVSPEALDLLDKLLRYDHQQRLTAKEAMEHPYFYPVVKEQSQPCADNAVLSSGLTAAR
T10 sequence (Q8TDX7 whole entry): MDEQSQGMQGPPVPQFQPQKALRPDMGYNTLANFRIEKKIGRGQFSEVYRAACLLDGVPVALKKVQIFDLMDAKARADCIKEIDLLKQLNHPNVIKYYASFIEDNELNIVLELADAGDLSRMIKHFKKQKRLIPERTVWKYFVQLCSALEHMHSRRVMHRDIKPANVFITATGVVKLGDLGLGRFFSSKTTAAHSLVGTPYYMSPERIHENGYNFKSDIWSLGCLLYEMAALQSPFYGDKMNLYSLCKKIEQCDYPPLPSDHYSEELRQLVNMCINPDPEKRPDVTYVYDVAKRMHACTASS
T14 sequence (O14920 whole entry): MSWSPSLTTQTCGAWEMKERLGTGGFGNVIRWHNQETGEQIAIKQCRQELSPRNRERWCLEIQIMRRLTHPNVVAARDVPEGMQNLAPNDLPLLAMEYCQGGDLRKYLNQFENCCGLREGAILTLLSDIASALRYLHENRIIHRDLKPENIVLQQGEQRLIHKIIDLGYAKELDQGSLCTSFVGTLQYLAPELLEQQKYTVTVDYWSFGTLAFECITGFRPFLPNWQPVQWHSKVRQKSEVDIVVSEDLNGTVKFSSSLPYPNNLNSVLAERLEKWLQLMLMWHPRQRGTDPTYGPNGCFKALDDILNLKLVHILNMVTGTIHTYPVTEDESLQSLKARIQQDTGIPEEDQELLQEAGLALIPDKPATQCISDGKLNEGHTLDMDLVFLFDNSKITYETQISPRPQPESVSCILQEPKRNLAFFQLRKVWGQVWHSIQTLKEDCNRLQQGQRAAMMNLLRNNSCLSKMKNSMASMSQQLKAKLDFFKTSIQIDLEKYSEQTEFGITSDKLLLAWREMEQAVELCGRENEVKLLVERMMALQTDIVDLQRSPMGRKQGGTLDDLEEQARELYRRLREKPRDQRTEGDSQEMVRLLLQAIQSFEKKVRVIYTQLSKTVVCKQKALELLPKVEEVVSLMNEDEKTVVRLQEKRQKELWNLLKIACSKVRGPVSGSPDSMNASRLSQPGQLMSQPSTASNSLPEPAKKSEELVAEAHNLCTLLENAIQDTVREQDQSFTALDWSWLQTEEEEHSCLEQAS
T8 sequence (P68400 whole entry): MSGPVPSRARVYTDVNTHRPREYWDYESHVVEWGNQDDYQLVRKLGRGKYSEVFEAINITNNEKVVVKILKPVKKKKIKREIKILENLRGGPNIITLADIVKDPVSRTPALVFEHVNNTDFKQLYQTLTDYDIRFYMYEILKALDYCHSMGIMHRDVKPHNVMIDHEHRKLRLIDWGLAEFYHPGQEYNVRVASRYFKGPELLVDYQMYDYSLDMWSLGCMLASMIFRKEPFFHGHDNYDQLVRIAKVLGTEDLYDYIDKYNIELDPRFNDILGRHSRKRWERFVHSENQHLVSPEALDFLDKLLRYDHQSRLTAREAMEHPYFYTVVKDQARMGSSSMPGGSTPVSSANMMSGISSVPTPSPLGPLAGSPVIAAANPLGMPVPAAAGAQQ

CN(C)CCNC(=O)c1ccc(-c2ccc(-c3ccc(Cl)cc3)n2-c2ccccc2C(F)(F)F)cc1 [Example 33, 4-[5-(4-chlorophenyl)-1-[2-(trifluoromethyl)phenyl]pyrrol-2-yl]-N-[2-(dimethylamino)ethyl]benzamide Hydrochloride]
IC50 [1]: 0.071 µM | binding to the hERG ion channel (hERG ion channel): > 25 µM | remaining activity at 5 µM (BUB1): 90% | remaining activity at 5 µM (WNK2): 100% | remaining activity at 5 µM (NEK11): 100% | remaining activity at 5 µM (WEE2): 92% | phospho-histone H3 in tumours (Western blotting) (phospho-histone H3): clear induction of phospho-histone H3 | formation of drug-resistant colonies [2]: not | remaining activity at 5 µM (STK35): 71% | remaining activity at 5 µM (DSTYK): 75% | remaining activity at 5 µM (NEK1): 100% | IC50 [3]: 0.223 µM | remaining activity at 5 µM (CSNK2A1): 96% | remaining activity at 5 µM (CHUK): 100% | remaining activity at 5 µM (NEK7): 79% | remaining activity at 5 µM (EIF2AK1): 98% | remaining activity at 5 µM (STK16): 92% | remaining activity at 5 µM (NEK3): 74% | hepatocyte CLint [4]: 10 µL/min/1e6 cells | remaining activity at 5 µM (IKBKB): 100% | IC50 [5]: 27.8 µM | remaining activity at 5 µM (AURKB): 95% | cytochrome P450 inhibition 2D6 (cytochrome P450 2D6): > 10 µM | IC50 [6]: 0.276 µM | remaining activity at 5 µM (ERN1): 74% | cytochrome P450 inhibition 3A4 (cytochrome P450 3A4): > 10 µM | cytochrome P450 inhibition 1A (cytochrome P450 1A): > 10 µM | remaining activity at 5 µM (WNK3): 100% | remaining activity at 5 µM (STK36): 91% | remaining activity at 5 µM (CSNK2A2): 92% | remaining activity at 5 µM (PKMYT1): 100%

— US11208405B2, “Pyrrole derivatives as PLK1 inhibitors” (SENTINEL ONCOLOGY LIMITED, priority 2017, dated 2021)
